# According to patent US6423708B1, “Aralkyl and aralkylidene heterocyclic lactams and imides” (Pfizer INC, priority 1996, dated 2002):
row,melting point,SMILES
1,90 to 115 °C,CN1CCN(c2ccccc2C=C2SCCN(Cc3ccc(Cl)c(Cl)c3)C2=O)CC1.Cl.O.O (hydrate or solvate)
2,146 to 147 °C,"CN1CCN(c2cccc(F)c2C=C2SCCN(c3ccc(Cl)c(Cl)c3)C2=O)CC1 [Example 11, 4-(3,4-Dichlorophenyl)-2-[2-fluoro-6-(4-methylpiperazin-1-yl)-benzylidene]-thiomorpholin-3-one]"
3,169 to 171 °C (dec.),"CN1CCN(c2ccccc2C=C2OCCN(c3ccc(Cl)c(Cl)c3)C2=O)CC1 [Example 12, 4-(3,4-Dichlorophenyl)-2-[2-(4-methylpiperazin-1-yl)-benzylidene]-morpholin-3-one]"

# More lines, now with the values behind:
row,SMILES,melting point
1,CN1CCN(c2ccccc2C=C2SC(=O)N(c3ccc(C(F)(F)F)cc3)C2=O)CC1.Cl.O.O (hydrate or solvate),159 to 177 °C
2,"CN1CCN(c2ccccc2C=C2SCCN(Cc3ccccc3)C2=O)CC1 [Example 4, 4-Benzyl-2-[2-(4-methylpiperazin-1-yl)-benzylidene]-thiomorpholin-3-one]",106 to 108 °C
3,"CN1CCN(c2ccccc2C=C2SCCNC2=O)CC1 [Example 10, 2-[2-(4-Methylpiperazin-1-yl)-benzylidene]-thiomorpholin-3-one]",133 to 135 °C
4,CN1CCN(c2ccccc2C=C2SCCN(c3ccc(C(F)(F)F)cc3)C2=O)CC1.Cl.O.O.O (hydrate or solvate),128 to 134 °C
5,"CN1CCN(c2ccccc2C=C2NC(=O)N(c3ccc(Cl)cc3)C2=O)CC1 [Example 2, 3-(4-Chlorophenyl)-5-[2-(4-methylpiperazin-1-yl)-benzylidene]-imidazolidine-2,4-dione]",193 to 193.5 °C
